# How the values were obtained:
# [1] = test system: HCV replicon in 5-2 Luc replicon-comprising cells; experiment: HCV replicon assay, luciferase readout (HEPC_REPLICON-LUC); format: cell-based; conditions: Hepatitis C virus; 5-2 Luc replicon cells, 50% reduction in luciferase emission; read-out: HEPC_REPLICON-LUC Result Value (IC50)
# Description: In one embodiment, the inhibitory activity of the metabolically active agent of the prodrug can be confirmed in a replicon assay that assesses the ability of a test compound to block or inhibit HCV replication in replicon cells. One example of a suitable replicon assay is the liver cell-line Huh 7-based replicon assay described in Lohmann et al., 1999, Science 285:110-113. A specific example of this replicon assay which utilizes luciferase translation is provided in the Examples Section. In one embodiment of this assay, the amount of test prodrug that yields a 50% reduction in translation as compared to a control cell (IC50) may be determined.
# The inhibitory activity of certain prodrugs of the invention, which may inhibit HCV translation or replication prior to metablism and/or are metabolized into active agents, was confirmed using an HCV replicon assay. The HCV replicon can include such features as the HCV 5′ untranslated region including the HCV IRES, the HCV 3′ untranslated region, selected HCV genes encoding HCV polypeptides, selectable markers, and a reporter gene such as luciferase, GFP, etc. In the assay, actively dividing 5-2 Luc replicon-comprising cells (obtained from Ralf Bartenschlager; see Lohmann et al., 1999, Science 285:110-113) were seeded at a density of between about 5,000 and 7,500 cells/well onto 96 well plates (about 90 μl of cells per well) and incubated at 37° C. and 5% CO2 for 24 hours. Then, the test prodrug (in a volume of about 10 μl) was added to the wells at various concentrations and the cells were incubated for an additional 24-48 hours before luciferase assay. The media was aspirated from each well and Bright-Glo (Promega, Madison, Wis.) luciferase assay reagents were added to each well according to the manufacturer's instructions. Briefly, the Bright-Glo reagent was diluted 1:1 with PBS and 100 μl of diluted reagent was added to each well. After 5 min of incubation at room temperature, luciferin emission was quantified with a luminometer. In this assay, the amount of test prodrug that yielded a 50% reduction in luciferase emission (IC50) was determined. This IC50 value may represent the antiviral activity of the prodrug itself, the activity of prodrug transformed into its active metabolized form, or a combination of the two.
# [2] = test system: HCV NS5A protein in 9-13 replicon cells; experiment: Quantitative Western blot replicon assay (HEPC_REPLICON-ICWESTERN); format: cell-based, Hepatitis C virus (HCV); conditions: Hepatitis C virus; 9-13 replicon cells, 50% reduction in NS5A protein; read-out: HEPC_REPLICON-ICWESTERN Result Value (IC50)
# Method: Alternatively, the inhibitory activity of the metabolically active agents of the prodrugs can be confirmed using a quantitative Western immunoblot assay utilizing antibodies specific for HCV non-structural proteins, such as NS3, NS4A NS5A and NS5B. In one embodiment of this assay, replicon cells are treated with varying concentrations of test prodrug to determine the concentration of the metabolically active agent of the test prodrug that yields a 50% reduction in the amount of a non-structural protein produced as compared to a control sample (IC50). A single non-structural protein may be quantified or multiple non-structural proteins may be quantified. Antibodies suitable for carrying out such immunoblot assays are available commercially (e.g., from BIODESIGN International, Saco, Me.).
# Certain prodrugs of the invention, which may inhibit HCV translation or replication prior to metablism and/or are metabolized into active agents, were also tested for their ability to inhibit HCV replication using a quantitative Western blot analysis with antibodies specific for the HCV NS5A or other non-structural proteins. Actively dividing 9-13 replicon cells were seeded into 6-well plates at a density of 1×10^5 cells/well in a volume of 2 ml/well and incubated at 37° C. and 5% CO2 for 24 hours. Various concentrations of test prodrugs (in a volume of 10 ul) were added to the wells and the cells incubated for another 48 hours. Protein samples were prepared from the cultured cells, resolved on a SDS-PAGE gel and transferred to a nitrocellulose membrane. The membrane was blocked with 5% non-fat milk in PBS for 1 hour at room temperature. Primary antibody (anti NS5A antibody; BIODESIGN International, Saco, Me.) incubation was performed for 1 hour at room temperature, after which the membrane was washed 3 times (for 15 min per time) with PBST (PBS plus 0.1% Tween 20). Horseradish peroxidase conjugated secondary antibody incubation was performed for 1 hour at room temperature and the membrane was washed 3 times (for 15 min per time) with PBST. The membrane was then soaked in substrate solution (Pierce) and exposed to a film or quantified using an imager. In this assay, the amount of test prodrug that is believed to be transformed into an active agent under the given conditions that yielded a 50% reduction in the amount of NS5A protein translated as compared to a control sample (IC50) was determined.
SMILES,IC50 [1] [µM],IC50 [2] [µM]
"O=C(C(Cl)Cl)N(CCP(=O)(O)O)c1cccc(-c2cc(-c3c(Cl)cccc3Cl)no2)c1 [Cpd. No. 2, 2-(2,2-Dichloro-N-(3-(3-(2,6-dichlorophenyl)isoxazol-5-yl)phenyl)acetamido)ethylphosphonic acid]",> 20,> 20
"CC(C)C(N)C(=O)CCN(C(=O)C(Cl)Cl)c1ccnc(-c2cc(-c3c(Cl)cccc3Cl)no2)c1 (centres unmarked) [Cpd. No. 3, N-(4-Amino-5-methyl-3-oxohexyl)-2,2-dichloro-N-(2-(3-(2,6-dichlorophenyl)isoxazol-5-yl)pyridin-4-yl)acetamide]",< 1,< 1
"NC(CCC(=O)CCN(C(=O)C(Cl)Cl)c1ccnc(-c2cc(-c3c(Cl)cccc3Cl)no2)c1)C(=O)O (centres unmarked) [Cpd. No. 5, 2-Amino-7-(2,2-dichloro-N-(2-(3-(2,6-dichlorophenyl)isoxazol-5-yl)pyridin-4-yl)acetamido)-5-oxoheptanoic acid]",< 1,< 1
"COCN(C(=O)C(Cl)Cl)c1ccnc(-c2cc(-c3c(Cl)cccc3Cl)no2)c1 [Cpd. No. 7, 2,2-Dichloro-N-(2-(3-(2,6-dichlorophenyl)isoxazol-5-yl)pyridin-4-yl)-N-(methoxymethyl)acetamide]",1 to 20,< 1
"CC(C)OCN(C(=O)C(Cl)Cl)c1ccnc(-c2cc(-c3c(Cl)cccc3Cl)no2)c1 [Cpd. No. 9, 2,2-Dichloro-N-(2-(3-(2,6-dichlorophenyl)isoxazol-5-yl)pyridin-4-yl)-N-(isopropoxymethyl)acetamide]",> 20,–
"NCCN(C(=O)C(Cl)Cl)c1cccc(-c2cc(-c3c(Cl)cccc3Cl)no2)c1 [Cpd. No. 16, N-(2-Aminoethyl)-2,2-dichloro-N-(3-(3-(2,6-dichlorophenyl)isoxazol-5-yl)phenyl)acetamide]",1 to 20,1 to 20
"CC(C)[C@H](NC(=O)OC(C)(C)C)C(=O)N[C@H](CN(C(=O)C(Cl)Cl)c1cccc(-c2cc(-c3c(Cl)cccc3Cl)no2)c1)C(C)C [Cpd. No. 27, tert-Butyl (S)-1-((S)-1-(2,2-Dichloro-N-(3-(3-(2,6-dichlorophenyl)isoxazol-5-yl)phenyl)acetamido)-3-methylbutan-2-ylamino)-3-methyl-1-oxobutan-2-ylcarbamate]",> 20,–
"CC[C@H](C)[C@H](NC(=O)OC(C)(C)C)C(=O)N[C@H](CN(C(=O)C(Cl)Cl)c1cccc(-c2cc(-c3c(Cl)cccc3Cl)no2)c1)C(C)C [Cpd. No. 28, tert-Butyl (2S,3S)-1-((S)-1-(2,2-Dichloro-N-(3-(3-(2,6-dichlorophenyl)isoxazol-5-yl)phenyl)acetamido)-3-methylbutan-2-ylamino)-3-methyl-1-oxopentan-2-ylcarbamate]",> 20,–
"CC[C@H](C)[C@H](NC(=O)OC(C)(C)C)C(=O)NCCN(C(=O)C(Cl)Cl)c1cccc(-c2cc(-c3c(Cl)cccc3Cl)no2)c1 [Cpd. No. 29, tert-Butyl (2S,3S)-1-(2-(2,2-Dichloro-N-(3-(3-(2,6-dichlorophenyl)isoxazol-5-yl)phenyl)acetamido)ethylamino)-3-methyl-1-oxopentan-2-ylcarbamate]",> 20,–
"CC(C)[C@H](NC(=O)OC(C)(C)C)C(=O)NCCN(C(=O)C(Cl)Cl)c1cccc(-c2cc(-c3c(Cl)cccc3Cl)no2)c1 [Cpd. No. 30, (S)-tert-Butyl 1-(2-(2,2-Dichloro-N-(3-(3-(2,6-dichlorophenyl)isoxazol-5-yl)phenyl)acetamido)ethylamino)-3-methyl-1-oxobutan-2-ylcarbamate]",> 20,–
"CC[C@H](C)[C@H](N)C(=O)NCCN(C(=O)C(Cl)Cl)c1cccc(-c2cc(-c3c(Cl)cccc3Cl)no2)c1 [Cpd. No. 38, (2S,3S)-2-Amino-N-(2-(2,2-dichloro-N-(3-(3-(2,6-dichlorophenyl)isoxazol-5-yl)phenyl)acetamido)ethyl)-3-methylpentanamide]",–,1 to 20
"CC(C)[C@H](N)CN(C(=O)C(Cl)Cl)c1cccc(-c2cc(-c3c(Cl)cccc3Cl)no2)c1 [Cpd. No. 39, (S)-N-(2-Amino-3-methylbutyl)-2,2-dichloro-N-(3-(3-(2,6-dichlorophenyl)isoxazol-5-yl)phenyl)acetamide]",–,1 to 20
"CC(C)[C@@H](CN(C(=O)C(Cl)Cl)c1cccc(-c2cc(-c3c(Cl)cccc3Cl)no2)c1)NC(=O)[C@@H](N)c1ccccc1 [Cpd. No. 40, N-((S)-2-((S)-2-Amino-2-phenylacetamido)-3-methylbutyl)-2,2-dichloro-N-(3-(3-(2,6-dichlorophenyl)isoxazol-5-yl)phenyl)acetamide]",–,> 20
"CC(C)[C@@H](CN(C(=O)C(Cl)Cl)c1cccc(-c2cc(-c3c(Cl)cccc3Cl)no2)c1)NC(=O)[C@H](N)c1ccccc1 [Cpd. No. 41, N-((S)-2-((R)-2-Amino-2-phenylacetamido)-3-methylbutyl)-2,2-dichloro-N-(3-(3-(2,6-dichlorophenyl)isoxazol-5-yl)phenyl)acetamide]",–,> 20
"CC(C)[C@@H](CN(C(=O)C(Cl)Cl)c1cccc(-c2cc(-c3c(Cl)cccc3Cl)no2)c1)NC(=O)C1CC(O)CN1 (stereo partly drawn) [Cpd. No. 42, N-((S)-1-(2,2-Dichloro-N-(3-(3-(2,6-dichlorophenyl)isoxazol-5-yl)phenyl)acetamido)-3-methylbutan-2-yl)-4-hydroxypyrrolidine-2-carboxamide]",–,> 20
"CNCC(=O)N[C@H](CN(C(=O)C(Cl)Cl)c1cccc(-c2cc(-c3c(Cl)cccc3Cl)no2)c1)C(C)C [Cpd. No. 43, (S)-2,2-Dichloro-N-(3-(3-(2,6-dichlorophenyl)isoxazol-5-yl)phenyl)-N-(3-methyl-2-(2-(methylamino)acetamido)butyl)acetamide]",–,1 to 20
"CC(C)C(NC(=O)C(NC(=O)OC(C)(C)C)C(C)C)C(=O)CCN(C(=O)C(Cl)Cl)c1ccnc(-c2cc(-c3c(Cl)cccc3Cl)no2)c1 (centres unmarked) [Cpd. No. 47, tert-Butyl 1-(6-(2,2-Dichloro-N-(2-(3-(2,6-dichlorophenyl)isoxazol-5-yl)pyridin-4-yl)acetamido)-2-methyl-4-oxohexan-3-ylamino)-3-methyl-1-oxobutan-2-ylcarbamate]",< 1,< 1
"CC(C)C(N)C(=O)NC(C(=O)CCN(C(=O)C(Cl)Cl)c1ccnc(-c2cc(-c3c(Cl)cccc3Cl)no2)c1)C(C)C (centres unmarked) [Cpd. No. 48, 2-Amino-N-(6-(2,2-dichloro-N-(2-(3-(2,6-dichlorophenyl)isoxazol-5-yl)pyridin-4-yl)acetamido)-2-methyl-4-oxohexan-3-yl)-3-methylbutanamide]",< 1,< 1
"CC(C)[C@@H](N)C(=O)CCN(C(=O)C(Cl)Cl)c1ccnc(-c2cc(-c3c(Cl)cccc3Cl)no2)c1 [Cpd. No. 61, (R)-N-(4-Amino-5-methyl-3-oxohexyl)-2,2-dichloro-N-(2-(3-(2,6-dichlorophenyl)isoxazol-5-yl)pyridin-4-yl)acetamide]",< 1,–

# From patent publication US7498353B2, “Heterocyclic anti-viral compounds comprising metabolizable moieties and their uses” (priority 2005, dated 2009)
